ChEMBL document CHEMBL4814073, “Ring-opening of five-membered heterocycles conjugated 4-isopropylresorcinol scaffold-based benzamides as HSP90 inhibitors suppressing tumor growth in vitro and in vivo” (Eur J Med Chem, 2021)
The source made the active and inactive calls. The calls are words filed in the database; no cut-off is given here.

How the values were obtained:
[1] = Apparent permeability across basolateral to apical in human Caco2 cells by LC-MS/MS analysis; assay type: ADME, cell-based; details: Caco-2, read-out: permeability
Heat shock protein HSP90 [2] = molecular target: T1, Heat shock protein HSP90 (Homo sapiens, UniProt P07900+P08238); test: Inhibition of HSP90 (unknown origin) assessed as competition of fluorescently labelled geldanamycin binding after 2 hrs by microplate reader analysis; assay type: protein assay
Heat shock protein HSP90 [3] = molecular target: T1, Heat shock protein HSP90; test: Inhibition of HSP90 in human A549 cells assessed as downregulation of Akt expression incubated for 24 hrs by immunoblot analysis; assay type: cell-based; details: dose microM <=3, time 24.0 hrs
Heat shock protein HSP90 [4] = molecular target: T1, Heat shock protein HSP90; test: Inhibition of HSP90 in human A549 cells assessed as downregulation of Akt expression at 3 uM by immunoblot analysis; assay type: cell-based; details: time hrs <=24, TDE = time-dependent effect
A549 [5] = test: Induction of EGFR degradation in human A549 cells assessed as reduction in eGFR expression measured after 24 hrs by immunoblot analysis; assay type: functional, cell-based; details: dose microM <=3, time 24.0 hrs
A549 [6] = test: Induction of cell cycle arrest in human A549 cells assessed as upregulation of cyclinB1 protein expression at 0.3 uM incubated for 24 hrs by Western blot analysis; assay type: functional, cell-based
A549 [7] = test: Induction of cell cycle arrest in human A549 cells assessed as decrease in cdc25c expression at Ser216 at 0.3 uM incubated for 24 hrs by Western blot analysis; assay type: functional, cell-based
A549 [8] = test: Induction of apoptosis in human A549 cells assessed as increase in cleaved caspase 3 protein expression at 0.3 to 3 uM measured after 18 hrs by western blot analysis; assay type: functional, cell-based; details: dose 0.3-3 µM
Cytochrome P450 2C19 = Cytochrome P450 2C19 (Homo sapiens, UniProt P33261); test: Inhibition of CYP2C19 in human liver microsomes using S-mephenytoin as substrate by LC-MS/MS analysis; assay type: ADME
[9] = Half life in Sprague-Dawley rat at 2 mg/kg, iv measured after 1 hrs by LC-MS/MS analysis; assay type: ADME, organism-based; details: in vivo
[10] = Tmax in Sprague-Dawley rat at 2 mg/kg, iv measured after 1 hrs by LC-MS/MS analysis; assay type: ADME, organism-based; details: in vivo
[11] = Tmax in Sprague-Dawley rat at 20 mg/kg, po measured after 1 hrs by LC-MS/MS analysis; assay type: ADME, organism-based; details: in vivo
[12] = Cmax in Sprague-Dawley rat at 2 mg/kg, iv measured after 1 hrs by LC-MS/MS analysis; assay type: ADME, organism-based; set-up: route intravenous, time 1 hrs, dose 2 mg/kg; details: in vivo
[13] = Cmax in Sprague-Dawley rat at 20 mg/kg, po measured after 1 hrs by LC-MS/MS analysis; assay type: ADME, organism-based; set-up: route oral, dose 20 mg/kg, time 1 hrs; details: in vivo
[14] = AUC (0 to t) in Sprague-Dawley rat at 2 mg/kg, iv measured after 1 hrs by LC-MS/MS analysis; assay type: ADME, organism-based; set-up: route intravenous, time 1 hrs, dose 2 mg/kg; details: in vivo
[15] = AUC (0 to infinity) in Sprague-Dawley rat at 2 mg/kg, iv measured after 1 hrs by LC-MS/MS analysis; assay type: ADME, organism-based; set-up: route intravenous, dose 2 mg/kg, time 1 hrs; details: in vivo
[16] = AUC (0 to infinity) in Sprague-Dawley rat at 20 mg/kg, po measured after 1 hrs by LC-MS/MS analysis; assay type: ADME, organism-based; set-up: route oral, time 1 hrs, dose 20 mg/kg; details: in vivo
[17] = Clearance in Sprague-Dawley rat at 2 mg/kg, iv measured after 1 hrs by LC-MS/MS analysis; assay type: ADME, organism-based; details: in vivo
[18] = Metabolic stability in Beagle dog hepatocytes assessed as half life by LC-MS/MS analysis; assay type: ADME, cell-based, Canis lupus familiaris, Hepatocyte
[19] = Metabolic stability in human hepatocytes assessed as half life by LC-MS/MS analysis; assay type: ADME, cell-based, Hepatocyte
[20] = Metabolic stability in CD1 mouse hepatocytes assessed as Intrinsic clearance by LC-MS/MS analysis; assay type: ADME, cell-based, Hepatocyte
[21] = Metabolic stability in Beagle dog hepatocytes assessed as Intrinsic clearance by LC-MS/MS analysis; assay type: ADME, cell-based, Canis lupus familiaris, Hepatocyte
[22] = Metabolic stability in human hepatocytes assessed as Intrinsic clearance by LC-MS/MS analysis; assay type: ADME, cell-based, Hepatocyte
A549 [23] = test: Induction of apoptosis in human A549 cells expressing wild type p53 assessed as caspase 3 cleavage at 0.3 uM incubated for 24 hrs by Western blot analysis; assay type: functional, cell-based
[24] = Hepatic clearance in CD1 mouse by LC-MS/MS analysis; assay type: ADME, tissue-based, Hepatocyte; details: hepatocytes
[25] = Hepatic clearance in Beagle dog by LC-MS/MS analysis; assay type: ADME, tissue-based, Canis lupus familiaris, Hepatocyte; details: hepatocytes
CYP2C8 = molecular target: T2, CYP2C8 (Homo sapiens, UniProt P10632); test: Inhibition of CYP2C8 in human liver microsomes using amodiaquine as substrate at 50 uM by LC-MS/MS analysis; assay type: ADME; details: probe amodiaquine
T2 sequence (P10632 whole entry): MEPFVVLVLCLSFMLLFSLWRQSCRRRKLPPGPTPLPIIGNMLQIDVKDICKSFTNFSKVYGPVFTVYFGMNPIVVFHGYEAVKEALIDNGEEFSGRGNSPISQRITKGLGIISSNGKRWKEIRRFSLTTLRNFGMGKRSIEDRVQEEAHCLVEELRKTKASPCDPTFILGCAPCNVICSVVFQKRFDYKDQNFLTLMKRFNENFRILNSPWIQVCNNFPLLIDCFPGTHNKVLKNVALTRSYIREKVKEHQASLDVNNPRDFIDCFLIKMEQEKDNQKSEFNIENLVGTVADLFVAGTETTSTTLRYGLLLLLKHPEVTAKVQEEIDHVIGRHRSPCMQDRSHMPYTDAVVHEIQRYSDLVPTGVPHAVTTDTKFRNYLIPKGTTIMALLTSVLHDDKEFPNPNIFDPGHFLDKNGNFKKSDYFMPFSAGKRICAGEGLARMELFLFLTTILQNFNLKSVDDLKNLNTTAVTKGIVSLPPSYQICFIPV

CYP2D6 = CYP2D6 (Homo sapiens, UniProt P10635); test: Inhibition of CYP2D6 in human liver microsomes using dextromethorphan as substrate at 50 uM by LC-MS/MS analysis; assay type: ADME; details: probe dextromethorphan
[26] = Hepatic clearance in human hepatocytes by LC-MS/MS analysis
Heat shock protein HSP90 [27] = molecular target: T1, Heat shock protein HSP90; test: Inhibition of HSP90 in human A549 cells assessed as downregulation of Src expression at 0.3 uM by immunoblot analysis; details: time hrs <=24, TDE = time-dependent effect
[28] = Toxicity in BALB/c mouse xenografted with human A549 cells assessed as reduction in body weight at 25 to 50 mg/kg, po treated daily relative to control; details: in vivo
[29] = Toxicity in BALB/c mouse xenografted with human H1975 cells assessed as reduction in body weight at 25 to 50 mg/kg, po treated daily relative to control; details: in vivo
A549 [30] = test: Antitumor activity against human A549 cells xenografted in BALB/c mouse assessed as tumor growth inhibition at 25 mg/kg, po treated daily relative to control; details: read-out: TGI
NCI-H1975 = test: Antitumor activity against human NCI-H1975 cells xenografted in BALB/c mouse assessed as tumor growth inhibition at 50 mg/kg, po treated daily relative to control; details: read-out: TGI
A549 [31] = test: Antitumor activity against human A549 cells xenografted in BALB/c mouse assessed as reduction in tumor growth inhibition at 50 mg/kg, po treated daily relative to control; details: read-out: TGI

Cytochrome P450 2C19, sequence (P33261 whole entry): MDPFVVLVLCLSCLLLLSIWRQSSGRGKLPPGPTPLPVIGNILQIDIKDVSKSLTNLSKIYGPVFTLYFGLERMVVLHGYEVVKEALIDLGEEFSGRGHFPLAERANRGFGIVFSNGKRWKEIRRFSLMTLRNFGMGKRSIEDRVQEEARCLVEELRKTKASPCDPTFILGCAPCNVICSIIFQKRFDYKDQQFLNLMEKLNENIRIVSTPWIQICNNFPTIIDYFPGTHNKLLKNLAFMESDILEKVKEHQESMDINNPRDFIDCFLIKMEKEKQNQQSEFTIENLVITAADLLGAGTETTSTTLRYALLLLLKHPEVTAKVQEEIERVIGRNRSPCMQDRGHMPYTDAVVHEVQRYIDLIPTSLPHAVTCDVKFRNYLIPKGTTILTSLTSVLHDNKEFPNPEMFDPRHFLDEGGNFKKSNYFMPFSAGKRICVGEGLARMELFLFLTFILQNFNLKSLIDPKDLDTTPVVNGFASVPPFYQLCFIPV
CYP2D6, sequence (P10635 whole entry): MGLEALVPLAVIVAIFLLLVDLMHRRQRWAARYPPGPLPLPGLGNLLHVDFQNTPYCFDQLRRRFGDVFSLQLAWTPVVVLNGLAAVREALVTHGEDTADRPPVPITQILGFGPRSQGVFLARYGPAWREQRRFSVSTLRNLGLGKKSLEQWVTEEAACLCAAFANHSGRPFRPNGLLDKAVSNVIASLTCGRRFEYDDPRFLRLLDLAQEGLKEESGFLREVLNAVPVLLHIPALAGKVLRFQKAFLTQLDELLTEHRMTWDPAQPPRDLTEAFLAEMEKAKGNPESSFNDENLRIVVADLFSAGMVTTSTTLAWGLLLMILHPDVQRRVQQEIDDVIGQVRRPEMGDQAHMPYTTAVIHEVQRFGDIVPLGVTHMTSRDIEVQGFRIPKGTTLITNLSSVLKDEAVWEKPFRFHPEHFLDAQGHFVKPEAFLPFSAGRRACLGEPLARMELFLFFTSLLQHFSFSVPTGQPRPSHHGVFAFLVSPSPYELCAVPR

Question: For `CCN(C(=O)c1cc(C(C)C)c(O)cc1O)c1cccnc1`, which Papp B→A [1] is on record?
Answer: 30.6 ×10⁻⁶ cm/s

Question: What about the IC50 (Heat shock protein HSP90 [2]) of the same molecule?
Answer: 0.11 µM

Question: And the inhibition (Heat shock protein HSP90 [3])?
Answer: Dose-Dependent Effect

Question: And the inhibition (Heat shock protein HSP90 [4])?
Answer: Tde

Question: And the Activity (A549 [5])?
Answer: Dose-Dependent Effect

Question: What about the Activity (A549 [6]) of the same molecule?
Answer: Active

Question: And the Activity (A549 [7])?
Answer: Active

Question: And the Activity (A549 [8])?
Answer: Active

Question: And the IC50 (Cytochrome P450 2C19)?
Answer: 7.8 µM

Question: What about the half-life [9] of the same molecule?
Answer: 174 min

Question: What about the Tmax [10] of the same molecule?
Answer: 1.8 min

Question: What about the Tmax [11] of the same molecule?
Answer: 15 min

Question: And the Cmax [12]?
Answer: 1580 ng/mL

Question: What about the Cmax [13] of the same molecule?
Answer: 40.5 ng/mL

Question: And the AUCt [14]?
Answer: 487 ng·h/mL

Question: What about the AUC [15] of the same molecule?
Answer: 456 ng·h/mL

Question: And the AUC [16]?
Answer: 811 ng·h/mL

Question: And the clearance [17]?
Answer: 73.2 mL/min/kg

Question: What about the half-life [18] of the same molecule?
Answer: 39.2 min

Question: What about the half-life [19] of the same molecule?
Answer: 67.6 min

Question: And the CLint [20]?
Answer: 3080 mL/min/kg

Question: What about the CLint [21] of the same molecule?
Answer: 119 mL/min/kg

Question: What about the CLint [22] of the same molecule?
Answer: 55.3 mL/min/kg

Question: And the Activity (A549 [23])?
Answer: inactive

Question: What about the CLhep predicted [24] of the same molecule?
Answer: 87.5 mL/min/kg

Question: And the CLhep predicted [25]?
Answer: 25 mL/min/kg

Question: What about the inhibition at 50 µM (CYP2C8) of the same molecule?
Answer: 54.3%

Question: And the inhibition at 50 µM (CYP2D6)?
Answer: 84%

Question: And the CLhep predicted [26]?
Answer: 14.7 mL/min/kg

Question: And the inhibition (Heat shock protein HSP90 [27])?
Answer: Tde

Question: And the Activity [28]?
Answer: Non-Toxic

Question: And the Activity [29]?
Answer: Non-Toxic

Question: And the inhibition in vivo at 25 mg/kg (A549 [30])?
Answer: 46.7%

Question: What about the inhibition in vivo at 50 mg/kg (NCI-H1975) of the same molecule?
Answer: 34.3%

Question: And the inhibition in vivo at 50 mg/kg (A549 [31])?
Answer: 46.9%
